Test results from ChEMBL document CHEMBL3046027, “In vitro and in vivo antifungal activity of synthetic pure isothiocyanates against Sclerotinia sclerotiorum” (Pest Manag Sci, 2011).

How the values were obtained:
[1] = tested on: Sclerotinia sclerotiorum; assay: Antifungal activity against Sclerotinia sclerotiorum assessed as inhibition of mycelial growth in volatile phase at 1024 umol/l measured at 20 degC after 5 days; format: functional; conditions: 120 h, read-out: GI
[2] = tested on: Sclerotinia sclerotiorum; assay: Fungistatic activity in Sclerotinia sclerotiorum assessed as inhibition of carpogenic germination in volatile phase at 146 umol/l measured at 20 degC after 5 days relative to control; format: functional; conditions: 120 h
[3] = tested on: Sclerotinia sclerotiorum; assay: Fungistatic activity in Sclerotinia sclerotiorum assessed as inhibition of carpogenic germination in volatile phase at 1460 umol/l measured at 20 degC after 5 days relative to control; format: functional; conditions: 120 h
[4] = tested on: Sclerotinia sclerotiorum; assay: Antifungal activity against Sclerotinia sclerotiorum assessed as inhibition of germination in volatile phase at 731 umol/l measured at 20 degC after 5 days; format: functional; conditions: 120 h
[5] = tested on: Sclerotinia sclerotiorum; assay: Antifungal activity against Sclerotinia sclerotiorum assessed as inhibition of mycelial growth in contact phase at 1316 umol/l measured at 20 degC after 5 days; format: functional; conditions: 120 h, read-out: GI
[6] = tested on: Sclerotinia sclerotiorum; assay: Fungistatic activity in Sclerotinia sclerotiorum assessed as inhibition of carpogenic germination in volatile phase at 732 umol/l measured at 20 degC after 5 days relative to control; format: functional; conditions: 120 h
[7] = tested on: Sclerotinia sclerotiorum; assay: Fungistatic activity in Sclerotinia sclerotiorum assessed as inhibition of mycelial growth in volatile phase measured at 20 degC after 5 days; format: functional, organism-based; conditions: 120 h
[8] = tested on: Sclerotinia sclerotiorum; assay: Fungistatic activity in Sclerotinia sclerotiorum assessed as sclerotial viability measured at 20 degC after 5 days; format: functional, organism-based; conditions: 120 h
[9] = tested on: Sclerotinia sclerotiorum; assay: In vivo antifungal Sclerotinia sclerotiorum in Pepper (Capsicum annuum L. cv. Sera Demre) assessed as inhibition of mycelial growth in volatile phase at 146 umol/L measured after 10 to 14 weeks; format: functional
[10] = tested on: Sclerotinia sclerotiorum; assay: Antifungal activity against Sclerotinia sclerotiorum assessed as inhibition of mycelial growth in contact phase at 1462 umol/l measured at 20 degC after 5 days; format: functional; conditions: 120 h, read-out: GI
[11] = tested on: Sclerotinia sclerotiorum; assay: Antifungal activity against Sclerotinia sclerotiorum assessed as inhibition of germination in volatile phase at 146 umol/l measured at 20 degC after 5 days; format: functional; conditions: 120 h
[12] = tested on: Sclerotinia sclerotiorum; assay: Antifungal activity against Sclerotinia sclerotiorum assessed as inhibition of germination in volatile phase at 73 umol/l measured at 20 degC after 5 days; format: functional; conditions: 120 h
[13] = tested on: Sclerotinia sclerotiorum; assay: Antifungal activity against Sclerotinia sclerotiorum assessed as inhibition of mycelial growth in contact phase at 4387 umol/l measured at 20 degC after 5 days; format: functional; conditions: 120 h, read-out: GI
[14] = tested on: Sclerotinia sclerotiorum; assay: Antifungal activity against Sclerotinia sclerotiorum assessed as inhibition of mycelial growth in volatile phase at 73 umol/l measured at 20 degC after 5 days; format: functional; conditions: 120 h, read-out: GI
[15] = tested on: Sclerotinia sclerotiorum; assay: Antifungal activity against Sclerotinia sclerotiorum assessed as inhibition of mycelial growth in volatile phase at 146 umol/l measured at 20 degC after 5 days; format: functional; conditions: 120 h, read-out: GI
[16] = tested on: Sclerotinia sclerotiorum; assay: Antifungal activity against Sclerotinia sclerotiorum assessed as inhibition of germination in volatile phase at 439 umol/l measured at 20 degC after 5 days; format: functional; conditions: 120 h
[17] = tested on: Sclerotinia sclerotiorum; assay: Antifungal activity against Sclerotinia sclerotiorum assessed as inhibition of mycelial growth in volatile phase at 1460 umol/l measured at 20 degC after 5 days; format: functional; conditions: 120 h, read-out: GI
[18] = tested on: Sclerotinia sclerotiorum; assay: In vivo antifungal Sclerotinia sclerotiorum in Pepper (Capsicum annuum L. cv. Sera Demre) assessed as inhibition of mycelial growth in volatile phase at 292 umol/L measured after 10 to 14 weeks; format: functional
[19] = tested on: Sclerotinia sclerotiorum; assay: Fungistatic activity in Sclerotinia sclerotiorum assessed as inhibition of mycelial growth in volatile phase at 732 umol/l measured at 20 degC after 5 days relative to control; format: functional; conditions: 120 h, read-out: GI
[20] = tested on: Sclerotinia sclerotiorum; assay: Antifungal activity against Sclerotinia sclerotiorum assessed as inhibition of mycelial growth in volatile phase at 732 umol/l measured at 20 degC after 5 days; format: functional; conditions: 120 h, read-out: GI
[21] = tested on: Sclerotinia sclerotiorum; assay: Antifungal activity against Sclerotinia sclerotiorum assessed as inhibition of mycelial growth in contact phase at 2924 umol/l measured at 20 degC after 5 days; format: functional; conditions: 120 h, read-out: GI
[22] = tested on: Sclerotinia sclerotiorum; assay: Antifungal activity against Sclerotinia sclerotiorum assessed as inhibition of germination in volatile phase at 1462 umol/l measured at 20 degC after 5 days; format: functional; conditions: 120 h
[23] = tested on: Sclerotinia sclerotiorum; assay: Fungistatic activity in Sclerotinia sclerotiorum assessed as inhibition of carpogenic germination in volatile phase at 73 umol/l measured at 20 degC after 5 days relative to control; format: functional; conditions: 120 h
[24] = tested on: Sclerotinia sclerotiorum; assay: Fungitoxic activity in Sclerotinia sclerotiorum assessed as viability in volatile phase at 731 umol/l measured at 20 degC after 5 days relative to control; format: functional; conditions: 120 h, read-out: GI
[25] = tested on: Sclerotinia sclerotiorum; assay: Fungistatic activity in Sclerotinia sclerotiorum assessed as inhibition of mycelial growth in contact phase measured at 20 degC after 5 days; format: functional, organism-based; conditions: 120 h
[26] = tested on: Sclerotinia sclerotiorum; assay: Fungistatic activity in Sclerotinia sclerotiorum assessed as inhibition of mycelial growth in contact phase at 4387 umol/l measured at 20 degC after 5 days relative to control; format: functional; conditions: 120 h, read-out: GI
[27] = tested on: Sclerotinia sclerotiorum; assay: Fungitoxic activity in Sclerotinia sclerotiorum assessed as inhibition of mycelial growth in volatile phase at 1024 umol/l measured at 20 degC after 5 days relative to control; format: functional; conditions: 120 h, read-out: GI
[28] = tested on: Sclerotinia sclerotiorum; assay: Antifungal activity against Sclerotinia sclerotiorum assessed as inhibition of mycelial growth in contact phase at 1024 umol/l measured at 20 degC after 5 days; format: functional; conditions: 120 h, read-out: GI

Question: Which inhibition of growth at 1024 µM [1] does the source give for `CN=C=S` [METHYLISOTHIOCYANATE] here?
Answer: Its inhibition of growth at 1024 µM is 100%.

Question: And the inhibition at 146 µM [2]?
Answer: The inhibition at 146 µM was 30%.

Question: And the inhibition at 1460 µM [3]?
Answer: The inhibition at 1460 µM was 67.5%.

Question: And the inhibition at 731 µM [4]?
Answer: Its inhibition at 731 µM is 100%.

Question: What about the inhibition of growth at 1316 µM [5] of the same compound?
Answer: Its inhibition of growth at 1316 µM is 18.2%.

Question: What about the inhibition at 732 µM [6] of the same compound?
Answer: The inhibition at 732 µM was 35%.

Question: And the EC50 [7]?
Answer: The EC50 was 79 µM.

Question: And the EC50 [8]?
Answer: Its EC50 is 336 µM.

Question: And the inhibition in vivo at 146 µM [9]?
Answer: The inhibition in vivo at 146 µM was 55%.

Question: And the inhibition of growth at 1462 µM [10]?
Answer: The inhibition of growth at 1462 µM was 54.7%.

Question: And the inhibition at 146 µM [11]?
Answer: The inhibition at 146 µM was 6.7%.

Question: And the inhibition at 73 µM [12]?
Answer: Its inhibition at 73 µM is 0%.

Question: What about the inhibition of growth at 4387 µM [13] of the same compound?
Answer: Its inhibition of growth at 4387 µM is 100%.

Question: What about the inhibition of growth at 73 µM [14] of the same compound?
Answer: The inhibition of growth at 73 µM was 34.7%.

Question: What about the inhibition of growth at 146 µM [15] of the same compound?
Answer: Its inhibition of growth at 146 µM is 55.3%.

Question: What about the inhibition at 439 µM [16] of the same compound?
Answer: The inhibition at 439 µM was 66.7%.

Question: What about the inhibition of growth at 1460 µM [17] of the same compound?
Answer: The inhibition of growth at 1460 µM was 100%.

Question: And the inhibition in vivo at 292 µM [18]?
Answer: The inhibition in vivo at 292 µM was 85%.

Question: What about the inhibition of growth at 732 µM [19] of the same compound?
Answer: The inhibition of growth at 732 µM was 100%.

Question: And the inhibition of growth at 732 µM [20]?
Answer: The inhibition of growth at 732 µM was 100%.

Question: What about the inhibition of growth at 2924 µM [21] of the same compound?
Answer: Its inhibition of growth at 2924 µM is 81.2%.

Question: What about the inhibition at 1462 µM [22] of the same compound?
Answer: The inhibition at 1462 µM was 100%.

Question: What about the inhibition at 73 µM [23] of the same compound?
Answer: Its inhibition at 73 µM is 30%.

Question: And the inhibition of growth at 731 µM [24]?
Answer: Its inhibition of growth at 731 µM is 100%.

Question: What about the EC50 [25] of the same compound?
Answer: Its EC50 is 168 µM.

Question: And the inhibition of growth at 4387 µM [26]?
Answer: The inhibition of growth at 4387 µM was 100%.

Question: What about the inhibition of growth at 1024 µM [27] of the same compound?
Answer: Its inhibition of growth at 1024 µM is 100%.

Question: What about the inhibition of growth at 1024 µM [28] of the same compound?
Answer: The inhibition of growth at 1024 µM was 10.8%.
